According to PMC5458078, “Global mapping of CARM1 substrates defines enzyme specificity and substrate recognition” (Nature Communications, 2017):

The substances below were run on MCF7 CARM1 KO cells (assay: Quantitative MS of ADMA-containing peptides in MCF7 CARM1 KO cells expressing CARM1 28-608 or CARM1 140-608, and in CARM1 KO). Conditions: not given.
Format: cell-based, human

In the case of QLQLQQQrMQLAQK, the “CARM1 140-608/WT” value is reported as -2.654.

Substance QLQLQQQrMQLAQK has a KO/WT of -4.55.

Same assay, conditions: CARM1 140-608 versus WT, difference of mean log2 values

Point of comparison: QrGVSHAMGGrGGINrGNIN, “CARM1 140-608/WT” value -0.01925. Against it:
- SAPFFIPTIPGLVPrYAAPEQNNDPQQSK — lower, -3.554
- SGSNWGrGSNMNSGPPR — higher, 0.2533
- SHLSTAGGLAVPSLPTAGPYYSPYALYGQrLASASALGYQ — lower, -2.31
- SLCASTLTVSSGSSrGSLASSrGSLASSR — lower, -0.3572

Same assay, conditions: CARM1 140-608 versus WT, mean of three replicates (log2)

Point of comparison: QLrMQLQQrLQGQQFLNQSrQALELK, “CARM1 140-608/WT” value -3.52. Against it:
- QLESLWSDSPAPPGPQAGPPSRPPrYSSSSIPEPFGSR — higher, -1.865
- QLrMQLQQrLQGQQFLNQSR — higher, -0.1108
- QMAVPSFTQQILCPKPVHVrPPMPPrYPAPYGER — higher, 0.05331
- QPQPAQNVLAAPrLR — higher, -0.6318
- RPPPEHFrRPPPEHFR — higher, -0.8789

Same assay, conditions: CARM1 140-608 vs WT, mean of 3 replicates (log2 scale)

Point of comparison: SGIILrSPrPDFrPrEPFLSrDPFHSLK, “CARM1 140-608/WT” value -0.96. Against it:
- QPPPLQQQArFIQPrPTLNQPPPPLIrPANSMPPR — higher, 1.096
- SAPWNSFLPPPPPMPGPrLGPGKPGLK — lower, -1.2

Same assay, conditions: CARM1 140-608 vs WT, mean of 3 replicates, log2

Point of comparison: QVHPFHVYPQPGMQrFR, “CARM1 140-608/WT” value -0.2745. Against it:
- QLPNAGPGAPPALGFSrFPAGAR — lower, -1.8557
- QLPNAGPGAPPALGFSrFPAGArYAGAGGLER — lower, -2.691
- QLrYQQPGPGSSPSSFLLK — lower, -1.181
- RPAQSVNrGGMTR — higher, 0.0581

Same assay, conditions: CARM1 KO versus WT, difference of mean log2 values

Point of comparison: SGSNWGrGSNMNSGPPR, KO/WT 0.9633. Against it:
- QrGVSHAMGGrGGINrGNIN — lower, 0.2719
- SAPFFIPTIPGLVPrYAAPEQNNDPQQSK — lower, -5.228
- SHLSTAGGLAVPSLPTAGPYYSPYALYGQrLASASALGYQ — lower, -2.998
- SLCASTLTVSSGSSrGSLASSrGSLASSR — lower, -0.04724

Same assay, conditions: KO versus WT, mean of three replicates (log2)

Point of comparison: QMAVPSFTQQILCPKPVHVrPPMPPrYPAPYGER, KO/WT -2.9202. Against it:
- QLESLWSDSPAPPGPQAGPPSRPPrYSSSSIPEPFGSR — higher, -2.771
- QLrMQLQQrLQGQQFLNQSR — higher, -1.926
- QLrMQLQQrLQGQQFLNQSrQALELK — lower, -6.321
- QPQPAQNVLAAPrLR — higher, -1.672
- RPPPEHFrRPPPEHFR — higher, -0.5356

Same assay, conditions: KO vs WT, mean of 3 replicates (log2 scale)

Point of comparison: SGIILrSPrPDFrPrEPFLSrDPFHSLK, KO/WT -2.553. Against it:
- QPPPLQQQArFIQPrPTLNQPPPPLIrPANSMPPR — higher, -1.373
- SAPWNSFLPPPPPMPGPrLGPGKPGLK — higher, -1.936

Same assay, conditions: KO vs WT, mean of 3 replicates, log2

Point of comparison: QLrYQQPGPGSSPSSFLLK, KO/WT -5.114. Against it:
- QLPNAGPGAPPALGFSrFPAGAR — higher, -2.458
- QLPNAGPGAPPALGFSrFPAGArYAGAGGLER — higher, -4.1849
- QVHPFHVYPQPGMQrFR — higher, -0.1867
- RPAQSVNrGGMTR — higher, 0.3659

Same assay, conditions: difference of log2 means, CARM1 140-608 vs WT

Point of comparison: SKPQLArYLGGSMDLSTFDFR, “CARM1 140-608/WT” value -0.3331. Against it:
- QLVGGSQAFYQrAPYPGSLPLQQQQQQLWQQQQATAATSMrFAMSARFPSTPGPELGR — lower, -1.475
- QSSATSSFGGLGGGSVrFGPGVAFR — lower, -2.723
- QSSATSSFGGLGGGSVrFGPGVAFrAPSIHGGSGGR — lower, -1.331
- QrLPFSAPPGSVVEASSNLR — lower, -0.4663
- RAPAGGSLGrALMR — higher, 0.2074
- RGPLSQNGSFGPSPVSGGECSPPLTVEPPVrPLSATLNR — lower, -1.692
- RPPTPGPDTSVSGPrLTLALAPGPPPPPSR — lower, -1.4

Same assay, conditions: difference of log2 means, KO vs WT

Point of comparison: QSSATSSFGGLGGGSVrFGPGVAFR, KO/WT -4.023. Against it:
- QLVGGSQAFYQrAPYPGSLPLQQQQQQLWQQQQATAATSMrFAMSARFPSTPGPELGR — higher, -2.512
- QSSATSSFGGLGGGSVrFGPGVAFrAPSIHGGSGGR — higher, -1.828
- QrLPFSAPPGSVVEASSNLR — higher, -1.419
- RAPAGGSLGrALMR — higher, 0.5402
- RGPLSQNGSFGPSPVSGGECSPPLTVEPPVrPLSATLNR — higher, -2.59
- RPPTPGPDTSVSGPrLTLALAPGPPPPPSR — higher, -1.877
- SKPQLArYLGGSMDLSTFDFR — higher, -0.5289

Same assay, conditions: log2 scale ratio, mean of n = 3

Point of comparison: RPEFMrGGGSGGGR, “CARM1 140-608/WT” value 0.07419. Against it:
- QrGVSHAMGGrGGINR — higher, 0.2049

Point of comparison: QrGVSHAMGGrGGINR, KO/WT 0.2554. Against it:
- RPEFMrGGGSGGGR — higher, 0.64

Same assay, conditions: mean, CARM1 140-608 versus WT (log2 scale)

Point of comparison: SGFAATSQPGPrLPFIQHSQNPrFYHK, “CARM1 140-608/WT” value -0.6332. Against it:
- QPVPFGLVrFGVAPDHPEVK — lower, -1.417
- QTGSPGMIYSTrYGSPK — lower, -2.435
- RAPVPVrGGPK — higher, 0.3236
- RGPPPPPPGrGGrGGSR — higher, 0.09749
- SGFAATSQPGPrLPFIQHSQNPR — higher, -0.196
- SGSGNFGGGrGGGFGGNDNFGrGGNFSGrGGFGGSR — higher, 0.1031

Same assay, conditions: mean, CARM1 KO versus WT (log2 scale)

Point of comparison: QTGSPGMIYSTrYGSPK, KO/WT -3.403. Against it:
- QPVPFGLVrFGVAPDHPEVK — higher, -1.677
- RAPVPVrGGPK — higher, 1.039
- RGPPPPPPGrGGrGGSR — higher, 0.3155
- SGFAATSQPGPrLPFIQHSQNPR — higher, -1.374
- SGFAATSQPGPrLPFIQHSQNPrFYHK — lower, -3.722
- SGSGNFGGGrGGGFGGNDNFGrGGNFSGrGGFGGSR — higher, 0.7867

Same assay, conditions: ratio on log2 scale, mean of 3 replicates

Point of comparison: SIVPTMHYQDSLPrLPIPK, “CARM1 140-608/WT” value -1.626. Against it:
- QIrFSQGQQLVTK — lower, -1.837
- QSHTLPFPPPPALPFYPASAYPrHFGPVPPSQGR — higher, -0.8989
- SAPrLNTTNAWGAAPPSLGSQPLYR — higher, -0.6132
- SHGYKPHFVPNFNGPNAIrQFQPNQINENWK — higher, -1.237

Point of comparison: QSHTLPFPPPPALPFYPASAYPrHFGPVPPSQGR, KO/WT -1.33. Against it:
- QIrFSQGQQLVTK — lower, -2.537
- SAPrLNTTNAWGAAPPSLGSQPLYR — lower, -1.593
- SHGYKPHFVPNFNGPNAIrQFQPNQINENWK — lower, -2.033
- SIVPTMHYQDSLPrLPIPK — lower, -2.513

What follows are substances tested on MCF7 cells (assay: Quantitative nanoLC-MS/MS (TMT) of ADMA-containing peptides, CARM1 KO vs parental). Conditions: ADMA-containing peptide, CARM1 knockout (KO) vs wild type (WT) MCF7 cells; 6-plex TMT experiment #1; three biological replicates each; sheet "MCF7".
Format: cell-based, human
Parameters: Fold change KO/WT: scale not given here

Point of comparison: QLrMQLQQrLQGQQFLNQSrQALELK, “Fold change KO/WT” value -3.961. Against it:
- QLrMQLQQrLQGQQFLNQSR — higher, -2.764
- QMAVPSFTQQILCPKPVHVrPPMPPrYPAPYGER — higher, -2.943
- QPQPAQNVLAAPrLR — higher, -1.672
- RAPAGGSLGrALMR — higher, 0.1845
- RGPLSQNGSFGPSPVSGGECSPPLTVEPPVrPLSATLNR — higher, -2.59
- RPPTPGPDTSVSGPrLTLALAPGPPPPPSR — higher, -1.877
- SKPQLArYLGGSMDLSTFDFR — higher, -0.3057

Same assay, conditions: ADMA-containing peptide, MCF7, CARM1 knockout (KO1-3) vs wild type (WT1-3), TMT 6-plex experiment #1

Point of comparison: QrGVSHAMGGrGGINrGNIN, “Fold change KO/WT” value 0.1671. Against it:
- QrGVSHAMGGrGGINR — lower, 0.102
- RPEFMrGGGSGGGR — higher, 0.64
- SAPWNSFLPPPPPMPGPrLGPGKPGLK — lower, -1.936

Same assay, conditions: CARM1 KO vs wild type MCF7 cells, 3 biological replicates each

Point of comparison: SLCASTLTVSSGSSrGSLASSrGSLASSR, “Fold change KO/WT” value -0.6221. Against it:
- SAPFFIPTIPGLVPrYAAPEQNNDPQQSK — lower, -5.228
- SGSNWGrGSNMNSGPPR — higher, 0.3426
- SHLSTAGGLAVPSLPTAGPYYSPYALYGQrLASASALGYQ — lower, -2.553

Same assay, conditions: MCF7, CARM1 KO (KO1-KO3) vs wild type (WT1-WT3)

Point of comparison: RPPPEHFrRPPPEHFR, “Fold change KO/WT” value -0.5356. Against it:
- QLESLWSDSPAPPGPQAGPPSRPPrYSSSSIPEPFGSR — lower, -2.771
- QPPPLQQQArFIQPrPTLNQPPPPLIrPANSMPPR — lower, -1.373
- SGIILrSPrPDFrPrEPFLSrDPFHSLK — lower, -2.553

Same assay, conditions: MCF7, CARM1 KO vs WT, three biological replicates each

Point of comparison: RPAQSVNrGGMTR, “Fold change KO/WT” value 0.2083. Against it:
- QIrFSQGQQLVTK — lower, -2.537
- QLPNAGPGAPPALGFSrFPAGAR — lower, -2.458
- QLPNAGPGAPPALGFSrFPAGArYAGAGGLER — lower, -4.1849
- QLrYQQPGPGSSPSSFLLK — lower, -4.8874
- QVHPFHVYPQPGMQrFR — lower, -0.1867

Same assay, conditions: MCF7, CARM1 knockout vs wild type, n = 3 each

Point of comparison: SGFAATSQPGPrLPFIQHSQNPR, “Fold change KO/WT” value -1.049. Against it:
- QPVPFGLVrFGVAPDHPEVK — lower, -1.677
- QSHTLPFPPPPALPFYPASAYPrHFGPVPPSQGR — lower, -1.33
- SAPrLNTTNAWGAAPPSLGSQPLYR — lower, -1.593
- SGFAATSQPGPrLPFIQHSQNPrFYHK — lower, -3.247
- SGSGNFGGGrGGGFGGNDNFGrGGNFSGrGGFGGSR — higher, 0.2137
- SHGYKPHFVPNFNGPNAIrQFQPNQINENWK — lower, -2.033
- SIVPTMHYQDSLPrLPIPK — lower, -2.513

Same assay, conditions: MCF7 CARM1 knockout vs wild type, 3 biological replicates each; values are on log2 scale

Point of comparison: QSSATSSFGGLGGGSVrFGPGVAFR, “Fold change KO/WT” value -2.868. Against it:
- QLQLQQQrMQLAQK — lower, -4.395
- QLVGGSQAFYQrAPYPGSLPLQQQQQQLWQQQQATAATSMrFAMSARFPSTPGPELGR — higher, -2.512
- QSSATSSFGGLGGGSVrFGPGVAFrAPSIHGGSGGR — higher, -1.828
- QTGSPGMIYSTrYGSPK — lower, -3.282
- QrLPFSAPPGSVVEASSNLR — higher, -1.459
- RAPVPVrGGPK — higher, 0.8174
- RGPPPPPPGrGGrGGSR — higher, 0.3155
